According to patent US11306081B2, “Phenylacetamides as inhibitors of rock” (BRISTOL-MYERS SQUIBB COMPANY, priority 2017, dated 2022):

These molecules were tested against ROCK2 (Homo sapiens (Human), UniProt O75116) (assay: ROCK assay (LABCHIP 3000 peptide phosphorylation assay)). Conditions: 5 μM ATP, 1.5 μM peptide substrate, dose-response.
Type: biochemical
Description: The effectiveness of compounds of the present invention as ROCK inhibitors can be determined in a 30 μL assay containing 20 mM HEPES, pH 7.5, 20 mM MgCl2, 0.015% Brij-35, 4 mM DTT, 5 μM ATP and 1.5 μM peptide substrate (FITC-AHA-AKRRRLSSLRA-OH) (SEQ ID No. 1). Compounds were dissolved in DMSO so that the final concentration of DMSO was <2%, and the reaction was initiated with Rho kinase variants. After incubation, the reaction was terminated by the addition of EDTA and the phosphorylated and non-phosphorylated peptides separated using a LABCHIP® 3000 Reader (Caliper Life Sciences). […] Compounds were tested in dose-response format, and the inhibition of kinase activity was calculated at each concentration of compound. The inhibition data were fit using a curve-fitting program to determine the IC50; i.e., the concentration of compound required to inhibit 50% of kinase activity.

Chain of ROCK2 (O75116 whole entry, species assumed): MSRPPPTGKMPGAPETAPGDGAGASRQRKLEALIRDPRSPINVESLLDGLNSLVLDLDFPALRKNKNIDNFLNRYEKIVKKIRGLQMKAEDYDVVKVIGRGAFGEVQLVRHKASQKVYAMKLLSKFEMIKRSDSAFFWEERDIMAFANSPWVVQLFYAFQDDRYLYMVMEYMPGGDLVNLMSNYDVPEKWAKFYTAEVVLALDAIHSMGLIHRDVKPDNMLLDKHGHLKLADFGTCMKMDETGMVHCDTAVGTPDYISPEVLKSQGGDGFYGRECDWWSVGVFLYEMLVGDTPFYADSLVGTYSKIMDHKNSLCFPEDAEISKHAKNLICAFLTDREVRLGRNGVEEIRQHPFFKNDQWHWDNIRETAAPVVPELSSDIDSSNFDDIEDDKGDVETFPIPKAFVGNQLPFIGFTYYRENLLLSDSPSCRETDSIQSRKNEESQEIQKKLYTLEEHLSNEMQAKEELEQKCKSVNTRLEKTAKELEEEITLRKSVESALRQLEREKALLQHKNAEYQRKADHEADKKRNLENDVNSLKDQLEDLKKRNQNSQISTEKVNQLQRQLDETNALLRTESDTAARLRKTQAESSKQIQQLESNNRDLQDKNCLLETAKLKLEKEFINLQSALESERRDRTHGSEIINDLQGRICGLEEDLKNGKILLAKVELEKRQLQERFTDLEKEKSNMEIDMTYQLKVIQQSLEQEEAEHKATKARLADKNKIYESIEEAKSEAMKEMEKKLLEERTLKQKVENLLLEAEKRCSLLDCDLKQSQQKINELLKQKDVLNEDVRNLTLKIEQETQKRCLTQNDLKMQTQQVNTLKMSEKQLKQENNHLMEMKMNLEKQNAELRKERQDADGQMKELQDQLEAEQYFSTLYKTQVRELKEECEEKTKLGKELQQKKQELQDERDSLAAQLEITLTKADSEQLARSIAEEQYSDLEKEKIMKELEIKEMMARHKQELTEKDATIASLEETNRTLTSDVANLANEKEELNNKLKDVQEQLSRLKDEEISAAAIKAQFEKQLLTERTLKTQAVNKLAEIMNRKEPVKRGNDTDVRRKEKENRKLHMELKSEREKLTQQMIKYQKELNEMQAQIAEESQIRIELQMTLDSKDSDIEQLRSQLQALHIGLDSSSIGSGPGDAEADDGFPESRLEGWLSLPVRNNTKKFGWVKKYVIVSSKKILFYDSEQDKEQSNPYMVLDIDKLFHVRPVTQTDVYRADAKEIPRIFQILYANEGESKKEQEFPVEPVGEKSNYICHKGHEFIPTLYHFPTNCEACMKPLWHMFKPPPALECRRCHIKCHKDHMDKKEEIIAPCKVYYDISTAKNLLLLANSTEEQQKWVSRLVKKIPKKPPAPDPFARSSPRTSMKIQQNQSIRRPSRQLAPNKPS

Which IC50 does the source give for NC(=O)c1cccnc1Oc1ccc(CC(=O)Nc2nc3ccccc3n2CC2CCOCC2)cc1F [Example 159, 2-(2-fluoro-4-(2-oxo-2-((1-((tetra-hydro-2H-pyran-4-yl)methyl)-1H-benzo[d]imidazol-2-yl)amino)ethyl)-phenoxy)nicotin-amide] here?
Its IC50 is 2180 nM.

How did the IC50 turn out when COc1ccc2c(c1)nc(NC(=O)Cc1ccc(Oc3ncccc3C(N)=O)c(F)c1)n2CC(F)F [Example 120, 2-(4-(2-((1-(2,2-difluoroethyl)-5-methoxy-1H-benzo[d]imidazol-2-yl)amino)-2-oxoethyl)-2-fluorophenoxy)nicotinamide] was run?
The IC50 was 23 nM.

With NC(=O)c1cccnc1Oc1ccc(CC(=O)Nc2nc3c(C(F)(F)F)cccn3n2)cc1F [Example 141, 2-(2-fluoro-4-(2-oxo-2-((8-(trifluoromethyl)-[1,2,4]triazolo[1,5-a]pyridin-2-yl)amino)ethyl)phenoxy)nicotinamide] as the molecule, how does the IC50 read?
Its IC50 is 34 nM.

NC(=O)c1cccnc1Oc1ccc(CC(=O)Nc2nnc(-c3ccccc3)s2)cc1 [Example 058, 2-(4-(2-oxo-2-((5-phenyl-1,3,4-thiadiazol-2-yl)amino)ethyl)phe-noxy)nicotinamide] was tested. Which IC50 did it give?
The IC50 was 419 nM.

With Cc1sc(NC(=O)Cc2ccc(Oc3ncccc3C(N)=O)c(F)c2)nc1-c1ccc(=O)n(C)c1 [Example 020, 2-(2-fluoro-4-(2-((5-methyl-4-(1-methyl-6-oxo-1,6-dihydropyridin-3-yl)thiazol-2-yl)amino)-2-oxoethyl)phenoxy)nicotinamide] as the molecule, how does the IC50 read?
Its IC50 is 106 nM.

For NC(=O)c1cccnc1Oc1ccc(CC(=O)Nc2nc3ccccc3n2Cc2ccccc2)cc1Cl [Example 079, 2-(4-(2-((1-benzyl-1H-benzo[d]imidazol-2-yl)amino)-2-oxoethyl)-2-chlorophenoxy)nico-tinamide], which IC50 is on record?
Its IC50 is 181 nM.

How did the IC50 turn out when NC(=O)c1cccnc1Oc1ccc(CC(=O)Nc2nc3cc(-c4cn[nH]c4)ccc3s2)cc1F [Example 031, 2-(4-(2-((5-(1H-pyrazol-4-yl)benzo[d]thiazol-2-yl)amino)-2-oxoethyl)-2-fluorophenoxy)nicotin-amide] was run?
The IC50 was 8 nM.

Which IC50 does the source give for Cc1cc(-c2ccc3sc(NC(=O)Cc4ccc(Oc5ncccc5C(N)=O)c(F)c4)nc3c2)n(C)n1 [Example 028, 2-(4-(2-((5-(1,3-dimethyl-1H-pyrazol-5-yl)benzo[d]thiazol-2-yl)amino)-2-oxoethyl)-2-fluorophenoxy)nicotin-amide] here?
The IC50 was 30 nM.

For NC(=O)c1cccnc1Oc1ccc(CC(=O)Nc2nc3ccc(F)cc3n2CC2CC2)cc1Cl [Example 172, 2-(2-chloro-4-(2-((1-(cyclopropyl-methyl)-6-fluoro-1H-benzo[d]-imidazol-2-yl)-amino)-2-oxo-ethyl)phenoxy)-nicotinamide], which IC50 is on record?
The IC50 was 7 nM.

COc1cccc(-c2nc(NC(=O)Cc3ccc(Oc4ncccc4C(N)=O)c(F)c3)sc2C)n1 [Example 043, 2-(2-fluoro-4-(2-((4-(6-methoxypyridin-2-yl)-5-methylthiazol-2-yl)amino)-2-oxoethyl)phenoxy)nico-tinamide] was tested. Which IC50 did it give?
The IC50 was 69.6 nM.

With COc1ccc2c(c1)nc(NC(=O)Cc1ccc(Oc3ncccc3C(N)=O)c(F)c1)n2CC1CC1 [Example 162, 2-(4-(2-((1-(cyclopropyl-methyl)-5-methoxy-1H-benzo[d]-imidazol-2-yl)-amino)-2-oxoethyl)-2-fluorophenoxy)-nicotinamide] as the molecule, how does the IC50 read?
Its IC50 is 47 nM.

NC(=O)c1cccnc1Oc1ccc(CC(=O)Nc2nc(C3CCC3)c(-c3ccccn3)s2)cc1Cl [Example 023, 2-(2-chloro-4-(2-((4-cyclobutyl-5-(pyridin-2-yl)thiazol-2-yl)amino)-2-oxoethyl)phenoxy)nicotinamide] was tested. Which IC50 did it give?
Its IC50 is 4 nM.

With CCCS(=O)(=O)c1ccc2[nH]c(NC(=O)Cc3ccc(Oc4ncccc4C(N)=O)cc3)nc2c1 [Example 069, 2-(4-(2-oxo-2-((5-(propylsulfonyl)-1H-benzo[d]imidazol-2-yl)amino)ethyl)phe-noxy)nicotinamide] as the molecule, how does the IC50 read?
The IC50 was 558 nM.

Which IC50 does the source give for NC(=O)c1cccnc1Oc1ccc(CC(=O)Nc2nc3c(F)cccc3n2CC2CC2)cc1Cl [Example 171, 2-(2-chloro-4-(2-((1-(cyclo-propylmethyl)-4-fluoro-1H-benzo[d]-imidazol-2-yl)-amino)-2-oxo-ethyl)phenoxy)-nicotinamide] here?
Its IC50 is 3 nM.

Cc1sc(NC(=O)Cc2ccc(Oc3ncccc3C(N)=O)cc2)nc1-c1ccccc1 [Example 016, 2-(4-(2-((5-methyl-4-phenylthiazol-2-yl)amino)-2-oxoethyl)phenoxy) nicotinamide] was tested. Which IC50 did it give?
Its IC50 is 87 nM.

Which IC50 does the source give for Cc1nn(C)cc1-c1ccc2sc(NC(=O)Cc3ccc(Oc4ncccc4C(N)=O)c(F)c3)nc2c1 [Example 004, 2-(4-(2-((5-(1,3-dimethyl-1H-pyrazol-4-yl)benzo[d]thiazol-2-yl)amino)-2-oxoethyl)-2-fluorophenoxy)nicotinamide] here?
The IC50 was 3 nM.

How did the IC50 turn out when CC(C)(O)COc1ccc2nc(NC(=O)Cc3ccc(Oc4ncccc4C(N)=O)cc3)sc2c1 [Example 109, 2-(4-(2-((6-(2-hydroxy-2-methylpropoxy)benzo[d]thiazol-2-yl)amino)-2-oxoethyl)phenoxy)nicotinamide] was run?
Its IC50 is 74 nM.

NC(=O)c1cccnc1Oc1ccc(CC(=O)Nc2nc(-c3cccc(OC(F)(F)F)c3)cs2)cc1 [Example 062] was tested. Which IC50 did it give?
The IC50 was 863 nM.

Which IC50 does the source give for Cc1nccc(-c2nc(NC(=O)Cc3ccc(Oc4ncccc4C(N)=O)c(F)c3)sc2C)n1 [Example 089, 2-(2-fluoro-4-(2-((5-methyl-4-(2-methylpyrimidin-4-yl)thiazol-2-yl)amino)-2-oxoethyl)phenoxy) nicotinamide] here?
Its IC50 is 14 nM.

Which IC50 does the source give for NC(=O)c1cccnc1Oc1ccc(CC(=O)Nc2nc3ccccc3s2)cc1F [Example 015, 2-(4-(2-(benzo[d]thiazol-2-ylamino)-2-oxoethyl)-2-fluorophenoxy)nicotinamide] here?
The IC50 was 31 nM.

How did the IC50 turn out when NC(=O)c1cccnc1Oc1ccc(CC(=O)Nc2nc3c(F)cccc3n2CC(F)F)cc1F [Example 169, 2-(4-(2-((1-(2,2-difluoroethyl)-4-fluoro-1H-benzo[d]-imidazol-2-yl)-amino)-2-oxo-ethyl)-2-fluoro-phenoxy)nicotin-amide] was run?
Its IC50 is 13 nM.

For Cc1sc(NC(=O)Cc2ccc(Oc3ncccc3C(N)=O)c(Cl)c2)nc1-c1ccc(F)nc1 [Example 103, 2-(2-chloro-4-(2-((4-(6-fluoropyridin-3-yl)-5-methylthiazol-2-yl)amino)-2-oxoethyl)phenoxy) nicotinamide], which IC50 is on record?
Its IC50 is 17 nM.

For Cc1sc(NC(=O)Cc2ccc(Oc3ncccc3C(N)=O)c(F)c2)nc1-c1ccc(F)cn1 [Example 014, 2-(2-fluoro-4-(2-((4-(5-fluoropyridin-2-yl)-5-methylthiazol-2-yl)amino)-2-oxoethyl)phenoxy)nic-otinamide], which IC50 is on record?
The IC50 was 96 nM.

Cn1cc(-c2ccc3nc(NC(=O)Cc4ccc(Oc5ncccc5C(N)=O)c(F)c4)n(CC4CC4)c3c2)cn1 [Example 144, 2-(4-(2-((1-(cyclopropylmethyl)-6-(1-methyl-1H-pyrazol-4-yl)-1H-benzo[d]imidazol-2-yl)amino)-2-oxoethyl)-2-fluorophenoxy)nicotinamide] was tested. Which IC50 did it give?
The IC50 was 5 nM.

With NC(=O)c1cccnc1Oc1ccc(CC(=O)Nc2nc3ccc(OC(F)(F)F)cn3n2)cc1F [Example 140, 2-(2-fluoro-4-(2-oxo-2-((6-(trifluoromethoxy)-[1,2,4]triazolo[1,5-a]pyridin-2-yl)amino)ethyl)phenoxy)nicotinamide] as the molecule, how does the IC50 read?
Its IC50 is 93 nM.

How did the IC50 turn out when CC(C)(O)COc1ccc2c(c1)N(C(=O)Cc1ccc(Oc3ncccc3C(N)=O)c(F)c1)CC2 [Example 114, 2-(2-fluoro-4-(2-(6-(2-hydroxy-2-methylpropoxy)indolin-1-yl)-2-oxoethyl)phenoxy)nicotinamide] was run?
The IC50 was 162 nM.

With Cc1n[nH]c(C)c1-c1ccc2sc(NC(=O)Cc3ccc(Oc4ncccc4C(N)=O)c(F)c3)nc2c1 [Example 005, 2-(4-(2-((5-(3,5-dimethyl-1H-pyrazol-4-yl)benzo[d]thiazol-2-yl)amino)-2-oxoethyl)-2-fluorophenoxy)nic-otinamide] as the molecule, how does the IC50 read?
The IC50 was 10 nM.

Which IC50 does the source give for NC(=O)c1cccnc1Oc1ccc(CC(=O)Nc2ccn(CC(F)(F)F)n2)cc1F [Example 099, 2-(2-fluoro-4-(2-oxo-2-((1-(2,2,2-trifluoroethyl)-1H-pyrazol-3-yl)amino)ethyl)phe-noxy)nicotinamide] here?
Its IC50 is 583 nM.

Which IC50 does the source give for COc1cccn2nc(NC(=O)Cc3ccc(Oc4ncccc4C(N)=O)cc3)nc12 [Example 083, 2-(4-(2-((8-methoxy-[1,2,4]triazolo[1,5-a]pyridin-2-yl)amino)-2-oxoethyl)phenoxy) nicotinamide] here?
Its IC50 is 106 nM.

NC(=O)c1cccnc1Oc1ccc(CC(=O)Nc2nnc(C3CC3)s2)cc1F [Example 092, 2-(4-(2-((5-cyclopropyl-1,3,4-thiadiazol-2-yl)amino)-2-oxoethyl)-2-fluorophenoxy)nico-tinamide] was tested. Which IC50 did it give?
Its IC50 is 361 nM.

How did the IC50 turn out when Cc1cc2nc(NC(=O)Cc3ccc(Oc4ncccc4C(N)=O)c(F)c3)nn2cc1C [Example 130, 2-(4-(2-((6,7-dimethyl-[1,2,4]-triazolo[1,5-a]-pyridin-2-yl)-amino)-2-oxoethyl)-2-fluorophenoxy)-nicotinamide] was run?
The IC50 was 23 nM.

For COc1ccc2c(c1)CCc1sc(NC(=O)Cc3ccc(Oc4ncccc4C(N)=O)c(Cl)c3)nc1-2 [Example 116, 2-(2-chloro-4-(2-((7-methoxy-4,5-dihydronaphtho[1,2-d]thiazol-2-yl)amino)-2-oxoethyl)phenoxy)nicotinamide], which IC50 is on record?
Its IC50 is 8 nM.

Cn1cc(-c2ccc3nc(NC(=O)Cc4ccc(Oc5ncccc5C(N)=O)c(Cl)c4)cn3c2)cn1 [Example 037, 2-(2-chloro-4-(2-((6-(1-methyl-1H-pyrazol-4-yl)imidazo[1,2-a]pyridin-2-yl)amino)-2-oxoethyl)phenoxy)nico-tinamide] was tested. Which IC50 did it give?
The IC50 was 34 nM.
